This note sets out measurements from patent US12091425B2 (AMGEN INC., priority 2016, dated 2024).

In assay [1] the test system is OPM-2 human multiple myeloma cell line. The experiment in a line: Cell Viability Assay (OPM-2 10 FBS). It is filed as cell-based. To be noted: OPM-2 cells, CellTiter-Glo. The gist of the method:
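IC50 from 4-parameter logistic fit of CellTiter-Glo luminescence. 3000 cells/well, 10% FBS medium, serial compound dilutions, 16 h, 37 °C/5% CO2; read 25 min post-reagent.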

Assay [2] concerns the target T1, Mcl-1/Bim interaction, recombinant human Mcl-1 (171-327) (Homo sapiens, UniProt Q07820).
T1 construct: made in house
The experiment in a line: Cell free Mcl-1: Bim Affinity Assay (Mcl-1 HTRF). It is filed as binding. The gist of the method: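 Read-out is time-resolved FRET after overnight incubation, using a biotin-labelled peptide from human Bim (51-76) as the binding partner; IC50 was derived from competition curves.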
(In general: In TR-FRET formats the signal depends on donor and acceptor labels being close together.)

The mark [3] stands for this setting: Homo sapiens, OPM-2, 16 h, 16 h incubation.
Setting [4] is: TR-FRET, 0.1 nM Mcl-1 (171-327), 0.05 nM biotin-Bim (51-76).
[5] abbreviates: Homo sapiens, OPM-2, 16 h, 16 h.
[6] abbreviates: cell free Mcl-1:Bim TR-FRET, recombinant human Mcl-1 (171-327).

Each structure is given as a SMILES string.

T1 sequence (Q07820 171-327): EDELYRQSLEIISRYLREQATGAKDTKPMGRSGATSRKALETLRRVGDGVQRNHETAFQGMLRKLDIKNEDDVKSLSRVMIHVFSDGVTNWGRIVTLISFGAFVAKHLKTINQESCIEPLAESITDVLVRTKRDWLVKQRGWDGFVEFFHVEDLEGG

Broadly, the IC50 is the concentration at which inhibition is half-maximal. As for `CC[C@@H]1CC/C=C/[C@H](OCC(=O)NCCOC)[C@@H]2CC[C@H]2CN2C[C@@]3(CCCc4cc(Cl)ccc43)COc3ccc(cc32)C(=O)NS1(=O)=O` [Example 1001, 2-(((1S,3′R,6′R,7′S,8′E,12′R)-6-chloro-12′-ethyl-13′,13′-dioxido-15′-oxo-3,4-dihydro-2H-spiro[naphthalene-1,22′-[20]oxa[13]thia[1,14]diazatetracyclo[14.7.2.0^3,6.0^19,24]pentacosa [8,16,18,24]tetraen]-7′-yl)oxy)-N-(2-methoxyethyl)acetamide], the IC50 in assay [1] (setting [3]) is 861 nM; in assay [2] (setting [4]), 0.573 nM.
With `COC[C@H]1[C@@H](C)C/C=C/[C@H](OC)[C@@H]2CC[C@H]2CN2C[C@@]3(CCCc4cc(Cl)ccc43)COc3ccc(cc32)C(=O)NS1(=O)=O` (single isomer, unassigned) [Example 461], the values for the IC50 in assay [1] (16 h) and in assay [2] (setting [4]) were 775 nM and 1.79 nM, respectively.
Regarding `COc1ccc(CNCCO[C@H]2/C=C/C[C@H](C)[C@@H](C)S(=O)(=O)NC(=O)c3ccc4c(c3)N(C[C@@H]3CC[C@H]32)C[C@@]2(CCCc3cc(Cl)ccc32)CO4)c(OC)c1` [Example 777, (1S,3′R,6′R,7′S,8′E,11′S,12′R)-6-chloro-7′-(2-((2,4-dimethoxybenzyl)amino)ethoxy)-11′,12′-dimethyl-3,4-dihydro-2H,15′H-spiro[naphthalene-1,22′-[20]oxa[13]thia[1,14]diazatetracyclo[14.7.2.0^3,6.0^19,24]pentacosa[8,16,18,24]tetraen]-15′-one-13′, 13′-dioxide], the IC50 came to 912 nM in assay [1] (setting [5]) and 13.8 nM in assay [2] (setting [6]).
As for `C[C@H]1C/C=C/[C@H](O)[C@@H]2CC[C@H]2CN2C[C@@]3(CCCc4cc(Cl)ccc43)COc3ccc(cc32)C(=O)NS(=O)(=O)N1CCN(C)C` [Example 76, (1S,3′R,6′R,7′S,8′E,11′S)-6-chloro-12′-(2-(dimethylamino)ethyl)-7′-hydroxy-11′-methyl-3,4-dihydro-2H,15′H-spiro[naphthalene-1,22′-[20]oxa[13]thia[1,12,14]triazatetracyclo[14.7.2.0^3,6.0^19,24]pentacosa[8,16,18,24]tetraen]-15′-one 13′,13′-dioxide], the IC50 in assay [1] (setting [5]) is 146 nM; in assay [2] (setting [4]), 0.405 nM.
As to `O=C1NS(=O)(=O)[C@@H](CCS(=O)(=O)Cc2ccccc2)CC/C=C/[C@H](O)[C@@H]2CC[C@H]2CN2C[C@@]3(CCCc4cc(Cl)ccc43)COc3ccc1cc32` (single isomer, unassigned) [Example 162], the values for the IC50 in assay [1] (16 h) and in assay [2] (setting [4]) were 8400 nM and 0.979 nM, respectively.
Regarding `CO[C@H]1/C=C/C[C@H]2CC[C@@H]2S(=O)(=O)NC(=O)c2ccc3c(c2)N(C[C@@H]2CC[C@H]21)C[C@@]1(CCCc2cc(Cl)ccc21)CO3` [Example 95, (1S,3′R,6′R,7′S,8′E,11′R,14′S)-6-chloro-7′-methoxy-3,4-dihydro-2H,17′H-spiro[naphthalene-1,24′-[22]oxa[15]thia[1,16]diazapentacyclo[16.7.2.0^3,6.0^11,14.0^21,26]heptacosa[8,18,20,26]tetraen]-17′-one 15′,15′-dioxide], the values for the 50% inhibitory concentration (IC50) in assay [1] (setting [5]) and in assay [2] (setting [4]) were 572 nM and 0.46 nM, respectively.
In the case of `O=C1NS(=O)(=O)C[C@@H]2C[C@@H]2/C=C/[C@H](O)[C@@H]2CC[C@H]2CN2C[C@@]3(CCCc4cc(Cl)ccc43)COc3ccc1cc32` (single isomer, unassigned) [Example 785], the IC50 in assay [1] (16 h) was determined as 16000 nM; in assay [2] (setting [6]), 3.02 nM.
`COCCOC1C=CCC(C)C(COC)S(=O)(=O)NC(=O)c2ccc3c(c2)N(CC2CCC21)CC1(CCCc2cc(Cl)ccc21)CO3` (single isomer, unassigned) [Example 463]: the IC50 in assay [1] (setting [5]) was determined as 122 nM; in assay [2] (setting [4]), 0.416 nM.
Turning to `CO[C@H]1/C=C/CC[C@@H](CO)S(=O)(=O)NC(=O)c2ccc3c(c2)N(C[C@@H]2CC[C@H]21)C[C@@]1(CCCc2cc(Cl)ccc21)CO3` (single isomer, unassigned) [Example 446], the IC50 in assay [1] (16 h) was 419 nM; in assay [2] (setting [4]), 0.493 nM.
Take `CC1CC=CC(O)C2CCC2CN2CC3(CCCc4cc(Cl)ccc43)COc3ccc(cc32)C(=O)NS(=O)(=O)C1CC(F)(F)F` (single isomer, unassigned) [Example 663]: the results for the IC50 in assay [1] (setting [5]) and in assay [2] (setting [6]) were 3110 nM and 0.312 nM, respectively.
Consider `COC(=O)CCC1(C)CCC=CC(O)C2CCC2CN2CC3(CCCc4cc(Cl)ccc43)COc3ccc(cc32)C(=O)NS1(=O)=O` (stereo not shown) [Example 560], for which the IC50 came to 12200 nM in assay [1] (setting [5]) and 4.83 nM in assay [2] (setting [6]).
For `O=C1NS(=O)(=O)[C@H]2CCC[C@@H](/C=C/[C@H](O)[C@@H]3CC[C@H]3CN3C[C@@]4(CCCc5cc(Cl)ccc54)COc4ccc1cc43)C2` (single isomer, unassigned) [Example 110], the IC50 worked out at 5580 nM in assay [1] (16 h) and 1.34 nM in assay [2] (setting [4]).
With `O=C1NS(=O)(=O)N(CC2CC2)CC/C=C/[C@H](O)[C@@H]2CC[C@H]2CN2C[C@@]3(CCCc4cc(Cl)ccc43)COc3ccc1cc32` [Example 20, (1S,3′R,6′R,7′S,8′E)-6-chloro-12′-(cyclopropylmethyl)-7′-hydroxy-3,4-dihydro-2H,15′H-spiro[naphthalene-1,22′-[20]oxa[13]thia[1,12,14]triazatetracyclo[14.7.2.0^3,6.0^19,24]pentacosa[8,16,18,24]tetraen]-15′-one 13,13′-dioxide], the IC50 in assay [1] (setting [5]) was 818 nM; in assay [2] (setting [4]), 0.85 nM.
With `CC[C@@H]1C[C@@H](C)/C=C/[C@H](OCCN2CCOCC2)[C@@H]2CC[C@H]2CN2C[C@@]3(CCCc4cc(Cl)ccc43)COc3ccc(cc32)C(=O)NS1(=O)=O` [Example 1026, (1S,3′R,6′R,7′S,8′E,10′R,12′R)-6-chloro-12′-ethyl-10′-methyl-7′-(2-(4-morpholinyl)ethoxy)-3,4-dihydro-2H,15′H-spiro[naphthalene-1,22′-[20]oxa[13]thia[1,14]diazatetracyclo[14.7.2.0^3,6.0^19,24]pentacosa [8,16,18,24]tetraen]-15′-one 13′,13′-dioxide], the IC50 in assay [1] (setting [3]) is 288 nM; in assay [2] (setting [4]), 1.12 nM.
`C=C1CCCC[C@@H](CC)S(=O)(=O)NC(=O)c2ccc3c(c2)N(C[C@@H]2CC[C@@H]12)C[C@@]1(CCCc2cc(Cl)ccc21)CO3` [Example 859, (1S,3′R,6′R,12′R)-6-chloro-12′-ethyl-7′-methylidene-3,4-dihydro-2H,15′H-spiro[naphthalene-1,22′-[20]oxa[13]thia[1,14]diazatetracyclo[14.7.2.0^3,6.0^19,24]pentacosa [16,18,24]trien]-15′-one 13′,13′-dioxide]: the IC50 in assay [1] (setting [5]) was 11500 nM; in assay [2] (setting [6]), 15.8 nM.
For `CO[C@H]1/C=C/CC[C@@H](C[C@@H](C)O)S(=O)(=O)NC(=O)c2ccc3c(c2)N(C[C@@H]2CC[C@H]21)C[C@@]1(CCCc2cc(Cl)ccc21)CO3` (single isomer, unassigned) [Example 548], the values for the IC50 in assay [1] (16 h) and in assay [2] (setting [6]) were 478 nM and 0.275 nM, respectively.
As to `CS(=O)(=O)CCN1CC/C=C\[C@H](O)[C@@H]2CC[C@H]2CN2C[C@@]3(CCCc4cc(Cl)ccc43)COc3ccc(cc32)C(=O)NS1(=O)=O` [Example 37, (1S,3′R,6′R,7′S,8′Z)-6-chloro-7′-hydroxy-12′-(2-(methylsulfonyl)ethyl)-3,4-dihydro-2H,15′H-spiro[naphthalene-1,22′-[20]oxa[13]thia[1,12,14]triazatetracyclo[14.7.2.0^3,6.0^19,24]pentacosa[8,16,18,24]tetraen]-15′-one 13′,13′-dioxide], the values for the IC50 in assay [1] (setting [5]) and in assay [2] (setting [4]) were 2570 nM and 0.614 nM, respectively.
As to `CC1CC(N(C)C)CC(O)C2CCC2CN2CC3(CCCc4cc(Cl)ccc43)COc3ccc(cc32)C(=O)NS(=O)(=O)C1C` (single isomer, unassigned) [Example 248], the IC50 in assay [1] (setting [5]) turned out to be 2160 nM; in assay [2] (setting [4]), 0.701 nM.
In the case of `COCCN1[C@@H](C)C/C=C\[C@H](O)[C@@H]2CC[C@H]2CN2C[C@@]3(CCCc4cc(Cl)ccc43)COc3ccc(cc32)C(=O)NS1(=O)=O` (single isomer, unassigned) [Example 63], the IC50 is 810 nM in assay [1] (setting [5]) and 0.728 nM in assay [2] (setting [4]).
As to `C[C@@H]1[C@@H](C)C/C=C/[C@H](OCC(=O)O)[C@@H]2CC[C@H]2CN2C[C@@]3(CCCc4cc(Cl)ccc43)COc3cc(CC(=O)O)c(cc32)C(=O)NS1(=O)=O` [Example 293, ((1S,3′R,6′R,7′S,8′E,11′S,12′R)-7′-(carboxymethoxy)-6-chloro-11′,12′-dimethyl-13′,13′-dioxido-15′-oxo-3,4-dihydro-2H-spiro[naphthalene-1,22′-[20]oxa[13]thia[1,14]diazatetracyclo[14.7.2.0^3,6.0^19,24]pentacosa [8,16,18,24]tetraen]-17′-yl)acetic acid], the IC50 in assay [1] (setting [5]) stood at 27600 nM; in assay [2] (setting [4]) it was 0.36 nM.
For the compound `O=C1NS(=O)(=O)[C@H]2CCC[C@H](/C=C/[C@H](O)[C@@H]3CC[C@H]3CN3C[C@@]4(CCCc5cc(Cl)ccc54)COc4ccc1cc43)C2` (single isomer, unassigned) [Example 104], the IC50 in assay [1] (16 h) turned out to be 13000 nM; in assay [2] (setting [4]), 40 nM.
`C[C@@H]1/C=C/[C@H](O)[C@@H]2CC[C@H]2CN2C[C@@]3(CCCc4cc(Cl)ccc43)COc3ccc(cc32)C(=O)NS(=O)(=O)[C@@H](C)C1` (single isomer, unassigned) [Example 1022]: the figures for the IC50 in assay [1] (16 h incubation) and in assay [2] (setting [4]) were 22700 nM and 23.5 nM, respectively.
For the compound `O=C1NS(=O)(=O)[C@@H]2CCCC[C@H]2CCC[C@H](O)[C@@H]2CC[C@H]2CN2C[C@@]3(CCCc4cc(Cl)ccc43)COc3ccc1cc32` (single isomer, unassigned) [Example 333], the results for the IC50 in assay [1] (16 h) and in assay [2] (setting [4]) were 3450 nM and 0.96 nM, respectively.
